{"source": "patent US11541029B2", "about": "“High penetration compositions and their applications” (Techfields Pharma Co., Ltd., priority 2008, dated 2023)", "key": {"[1]": {"system": "rats given sterilized E. coli suspension as a pyrogen", "test": "Antipyretic activity of aspirin and its HPC (Study B)", "type": "in vivo", "conditions": "for body temperature: in °C (unit assumed)", "description": "[…] Group A was the control group. The body temperature of rats was taken at 90 min. intervals before and after the administration of the test compounds."}, "[2]": {"system": "fungal diseases and insects of grape vine", "test": "Antiviral, anti-fungus, anti-insect activity in red grape vine", "type": "in vivo", "from_the_text": "2 Acres of grape vine was divided into 4 groups (½ acre each). All field operations concerning land preparation and the uses of fertilizers were same for all groups. Group A was control group treated with no chemicals. Group B was normal fungicides and insecticides-treated group. Group C was N,N-diethylaminoethyl acetylsalicylate treated group. Group D was N,N-diethylaminoethyl acetylsalicylate and N,N-diethylaminoethyl jasmonate.citric acid treated group. In group A, black rot, downy mildew, powdery mildew, anthracnose, Phomopsis Blight, and other fungal diseases were found and Grape Berry Moth, Grape Root Borer, Rose Chafer, Japanese beetle, grape tomato gall, and other diseases and insects were found. Yield nothing of good (edible) grapes. In group B, 200 g of Ferbam 76% WP in 100 kg of water was applied to the group B grape vines in November 15; 160 g of sulfur 95% WP and 600 g of hydrated lime in 100 kg of water was applied to the group B grape vines in December 15; 200 g of Daconil 2787 in 100 kg of water was applied to the group B grape vines in March 10; 250 g of Captan 50% WP and 200 g of dimethomorph 50% WP in 100 kg of water was applied to the group B grape vines in March 20; 30 g of (4″R)-4″-deoxy-4″-(methylamino)avermectin B1 benzoate [proclaim ? (banleptm)] […]"}, "[3]": {"system": "MPTP-induced Parkinson's disease mice", "test": "Anti-Parkinson's disease activity in MPTP-induced mice", "conditions": "MPTP mice, 30 mg/kg, n = 10", "method": "Group A mice were ip injected 0.4% sodium carboxymethylcellulos (15 ml/kg per day) for 7 days. Group B and C mice were ip injected N-methyl-4-phenyl-1,2,3,6-tetrahydropyridine (MPTP, 30 mg/kg per day) for 7 days. The mice were divided into 2 groups. […] All mice were killed after the last treatment and the brain tissues were quickly freezed at −80° C. […] The contents of malondialdehyde (MDA) in the SN were measured with the thiobarbituric acid-reaction to indicate the LPO, and contents of glutathione (GSH) in the substantia nigra (SN) were based on the dithionitrobenzonic acid (DTNB) determination. The contents of GABA and Glu in the striatum and SN were shown by high performance amino acid auto-analyser."}}}
{"smiles": "CCN(CC)CCOC(=O)c1ccccc1OC(C)=O.Cl", "note": "[P-1, diethylaminoethyl acetylsalicylate.HCl salt]", "values": [{"measurement": "antipyretic activity", "setting": "[1]; 20 mg/kg, oral administration", "result": "almost the same antipyretic activity as 100 mg/kg of aspirin"}, {"measurement": "body temperature", "setting": "[1]; 20 mg/kg, orally, t = 0 min.", "result": "37.6 ± 0.3"}, {"measurement": "body temperature", "setting": "[1]; 20 mg/kg, orally, t = 90 min.", "result": "37.1 ± 0.4"}, {"measurement": "body temperature", "setting": "[1]; 20 mg/kg, orally, t = 180 min.", "result": "36.8 ± 0.2"}, {"measurement": "body temperature", "setting": "[1]; 20 mg/kg, orally, t = 270 min.", "result": "36.5 ± 0.3"}, {"measurement": "body temperature", "setting": "[1]; 50 mg/kg, orally, t = 0 min.", "result": "37.6 ± 0.3"}, {"measurement": "body temperature", "setting": "[1]; 50 mg/kg, orally, t = 90 min.", "result": "36.7 ± 0.3"}, {"measurement": "body temperature", "setting": "[1]; 50 mg/kg, orally, t = 180 min.", "result": "36.5 ± 0.2"}, {"measurement": "body temperature", "setting": "[1]; 50 mg/kg, orally, t = 270 min.", "result": "36.4 ± 0.3"}, {"measurement": "body temperature", "setting": "[1]; 100 mg/kg, orally, t = 0 min.", "result": "37.6 ± 0.4"}, {"measurement": "body temperature", "setting": "[1]; 100 mg/kg, orally, t = 90 min.", "result": "36.6 ± 0.4"}, {"measurement": "body temperature", "setting": "[1]; 100 mg/kg, orally, t = 180 min.", "result": "36.5 ± 0.3"}, {"measurement": "body temperature", "setting": "[1]; 100 mg/kg, orally, t = 270 min.", "result": "36.4 ± 0.3"}, {"measurement": "body temperature", "setting": "[1]; groups H/I, 50 mg/kg, transdermally, t = 0 min.", "result": "37.5 ± 0.3"}, {"measurement": "body temperature", "setting": "[1]; groups H/I, 50 mg/kg, transdermally, t = 90 min.", "result": "36.5 ± 0.2"}, {"measurement": "body temperature", "setting": "[1]; groups H/I, 50 mg/kg, transdermally, t = 180 min.", "result": "36.3 ± 0.3"}, {"measurement": "body temperature", "setting": "[1]; groups H/I, 50 mg/kg, transdermally, t = 270 min.", "result": "36.4 ± 0.2"}, {"measurement": "body temperature", "setting": "[1]; groups J/K, 20 mg/kg, transdermally, t = 0 min.", "result": "37.5 ± 0.4"}, {"measurement": "body temperature", "setting": "[1]; groups J/K, 20 mg/kg, transdermally, t = 90 min.", "result": "36.7 ± 0.2"}, {"measurement": "body temperature", "setting": "[1]; groups J/K, 20 mg/kg, transdermally, t = 180 min.", "result": "36.4 ± 0.2"}, {"measurement": "body temperature", "setting": "[1]; groups J/K, 20 mg/kg, transdermally, t = 270 min.", "result": "36.4 ± 0.2"}, {"measurement": "body temperature", "setting": "[1]; groups L/M, 20 mg/kg, transdermally, t = 0 min.", "result": "37.6 ± 0.2"}, {"measurement": "body temperature", "setting": "[1]; groups L/M, 20 mg/kg, transdermally, t = 90 min.", "result": "36.5 ± 0.4"}, {"measurement": "body temperature", "setting": "[1]; groups L/M, 20 mg/kg, transdermally, t = 180 min.", "result": "36.4 ± 0.3"}, {"measurement": "body temperature", "setting": "[1]; groups L/M, 20 mg/kg, transdermally, t = 270 min.", "result": "36.5 ± 0.2"}, {"measurement": "Yield of good (edible) grapes", "setting": "[2]; 1/2 acre per group, Malathion co-applied in group C", "result": 6300, "unit": "kg"}, {"measurement": "harvest dates earlier", "setting": "[2]; groups C and D", "result": 10, "unit": "days"}, {"measurement": "GABA in Striatum", "setting": "[3]", "result": "4.9 ± 1.6", "unit": "μmol/g wet tissue"}, {"measurement": "GABA in Substantia nigra", "setting": "[3]", "result": "4.7 ± 0.5", "unit": "μmol/g wet tissue"}, {"measurement": "GSH in the substantia nigra", "setting": "[3]", "result": "143 ± 13", "unit": "μg/g protein"}, {"measurement": "Glu in Striatum", "setting": "[3]", "result": "26.5 ± 2.7"}, {"measurement": "Glu in Substantia nigra", "setting": "[3]", "result": "29.5 ± 2.4"}, {"measurement": "MDA in the substantia nigra", "setting": "[3]", "result": "14 ± 4", "unit": "μmol/g protein"}]}
